From the supplement of paper PMC10307832

Legend:
Experiment in all cases: relative viability (nuclei count vs DMSO), 5 days (fraction); higher = more cells survive
[1] = test system: A-427
Method in brief: (§1)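 After 5 days of treatment, lung cancer cells in 1536-well plates were fixed and stained in a single step (final 0.05% Triton X-100, 1% formaldehyde, 1 ug/ml Hoechst) and their nuclei counted on 4× images. Treatment had been applied by pin tool the day after seeding as one drug alone or as a fixed anchor-drug dose with five library-drug doses (not always all listed) in √10 steps. Relative viability is the nuclei count of treated wells divided by that of vehicle wells, and values are medians of duplicate plates.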

[2] = test system: ABC-1
Method in brief: as §1

[3] = test system: EMC-BAC-2
Method in brief: as §1

[4] = test system: HARA
Method in brief: as §1

[5] = test system: HOP-62
Method in brief: as §1

[6] = test system: LK-2
Method in brief: as §1

[7] = test system: LXF-289
Method in brief: as §1

[8] = test system: NCI-H1792
Method in brief: as §1

[9] = test system: NCI-H1944
Method in brief: as §1

[10] = test system: NCI-H1993
Method in brief: as §1

[11] = test system: NCI-H2009
Method in brief: as §1

## Cc1sc2c(c1C)C(c1ccc(Cl)cc1)=N[C@@H](CC(=O)OC(C)(C)C)c1nnc(C)n1-2 [JQ1] + CC(=O)c1c(C)c2cnc(Nc3ccc(N4CCNCC4)cn3)nc2n(C2CCCC2)c1=O [Palbociclib] (partner 0.5 µM)
[1]; first compound 0.04 µM
  relative viability: 0.524
[1]; first compound 0.1265 µM
  relative viability: 0.493
[1]; first compound 0.4 µM
  relative viability: 0.457
[1]; first compound 1.265 µM
  relative viability: 0.445
[1]; first compound 4 µM
  relative viability: 0.375
[2]; first compound 0.04 µM
  relative viability: 0.701
[2]; first compound 0.1265 µM
  relative viability: 0.479
[2]; first compound 0.4 µM
  relative viability: 0.44
[2]; first compound 1.265 µM
  relative viability: 0.451
[2]; first compound 4 µM
  relative viability: 0.334
[3]; first compound 0.04 µM
  relative viability: 0.496
[3]; first compound 0.1265 µM
  relative viability: 0.441
[3]; first compound 0.4 µM
  relative viability: 0.421
[3]; first compound 1.265 µM
  relative viability: 0.332
[3]; first compound 4 µM
  relative viability: 0.315
[4]; first compound 0.04 µM
  relative viability: 0.224
[4]; first compound 0.1265 µM
  relative viability: 0.193
[4]; first compound 0.4 µM
  relative viability: 0.228
[4]; first compound 1.265 µM
  relative viability: 0.229
[4]; first compound 4 µM
  relative viability: 0.189
[5]; first compound 0.04 µM
  relative viability: 0.424
[5]; first compound 0.1265 µM
  relative viability: 0.323
[5]; first compound 0.4 µM
  relative viability: 0.152
[5]; first compound 1.265 µM
  relative viability: 0.106
[5]; first compound 4 µM
  relative viability: 0.0968
[6]; first compound 0.04 µM
  relative viability: 0.718
[6]; first compound 0.1265 µM
  relative viability: 0.702
[6]; first compound 0.4 µM
  relative viability: 0.339
[6]; first compound 1.265 µM
  relative viability: 0.151
[6]; first compound 4 µM
  relative viability: 0.151
[7]; first compound 0.04 µM
  relative viability: 0.562
[7]; first compound 0.1265 µM
  relative viability: 0.591
[7]; first compound 0.4 µM
  relative viability: 0.576
[7]; first compound 1.265 µM
  relative viability: 0.426
[7]; first compound 4 µM
  relative viability: 0.353
[8]; first compound 0.04 µM
  relative viability: 0.6
[8]; first compound 0.4 µM
  relative viability: 0.538
[8]; first compound 1.265 µM
  relative viability: 0.446
[8]; first compound 4 µM
  relative viability: 0.385
[9]; first compound 0.04 µM
  relative viability: 0.327
[9]; first compound 0.1265 µM
  relative viability: 0.308
[9]; first compound 0.4 µM
  relative viability: 0.232
[9]; first compound 1.265 µM
  relative viability: 0.217
[9]; first compound 4 µM
  relative viability: 0.179
[10]; first compound 0.04 µM
  relative viability: 0.772
[10]; first compound 0.1265 µM
  relative viability: 0.734
[10]; first compound 0.4 µM
  relative viability: 0.613
[10]; first compound 1.265 µM
  relative viability: 0.613
[10]; first compound 4 µM
  relative viability: 0.714
[11]; first compound 0.04 µM
  relative viability: 0.181
[11]; first compound 0.1265 µM
  relative viability: 0.137
[11]; first compound 0.4 µM
  relative viability: 0.199
